Paper PMC11079024, “Identification of a family of species-selective complex I inhibitors as potential anthelmintics” (Nature Communications, 2024)
Several values for one entry are separate records, joined by “and”; a condition that tells them apart may be missing. Identical values can stand only once. Like-named read-outs stand apart in the source and are kept apart here.

Target: C. elegans (N2) complex I (NADH:ubiquinone oxidoreductase) (Caenorhabditis elegans, UniProt P24887+Q93873+Q94360)
Test: biochemical
Format: biochemical
In short: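 Mitochondria from liquid-cultured adults were freeze-thawed thrice before the 15-min DCIP-coupled NADH oxidation read.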

[1] = wild-type C. elegans, mean of Rep1-4, read-out: percent in vitro complex I activity relative to solvent control, Mean
[2] = wild-type C. elegans, individual Rep1-Rep4, read-out: percent in vitro complex I activity relative to solvent control, single replicates
[3] = N2 wild-type mitochondria, Fig. 4d data set, mean of replicates, read-out: percent (%) in vitro complex I activity relative to solvent control
[4] = wild-type C. elegans mitochondria, mean of replicates, read-out: percent (%) in vitro complex I activity relative to solvent control
[5] = C. elegans mitochondria, Mean of replicates, read-out: in vitro complex I activity relative to solvent control
[6] = C. elegans mitochondria, single replicate, read-out: in vitro complex I activity relative to solvent control
[7] = C. elegans mitochondria, Mean, read-out: in vitro complex I activity relative to solvent control

Sequence of C. elegans (N2) complex I (NADH:ubiquinone oxidoreductase) (Q94360 17-199): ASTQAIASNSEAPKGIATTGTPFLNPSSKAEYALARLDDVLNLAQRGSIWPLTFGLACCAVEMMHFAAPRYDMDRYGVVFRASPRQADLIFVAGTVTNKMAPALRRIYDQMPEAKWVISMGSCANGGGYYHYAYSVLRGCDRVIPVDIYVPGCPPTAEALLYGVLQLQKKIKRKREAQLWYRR
Sequence of C. elegans (N2) complex I (NADH:ubiquinone oxidoreductase) (P24887 whole entry): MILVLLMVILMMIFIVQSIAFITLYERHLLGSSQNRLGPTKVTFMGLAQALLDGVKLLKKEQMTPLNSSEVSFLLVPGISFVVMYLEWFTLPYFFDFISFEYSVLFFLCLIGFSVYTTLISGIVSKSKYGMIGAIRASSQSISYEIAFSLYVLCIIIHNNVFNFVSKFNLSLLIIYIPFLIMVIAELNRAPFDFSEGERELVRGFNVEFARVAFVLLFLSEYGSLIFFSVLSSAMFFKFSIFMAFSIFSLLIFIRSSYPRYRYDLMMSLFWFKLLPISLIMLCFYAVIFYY
Sequence of C. elegans (N2) complex I (NADH:ubiquinone oxidoreductase) (Q93873 31-482): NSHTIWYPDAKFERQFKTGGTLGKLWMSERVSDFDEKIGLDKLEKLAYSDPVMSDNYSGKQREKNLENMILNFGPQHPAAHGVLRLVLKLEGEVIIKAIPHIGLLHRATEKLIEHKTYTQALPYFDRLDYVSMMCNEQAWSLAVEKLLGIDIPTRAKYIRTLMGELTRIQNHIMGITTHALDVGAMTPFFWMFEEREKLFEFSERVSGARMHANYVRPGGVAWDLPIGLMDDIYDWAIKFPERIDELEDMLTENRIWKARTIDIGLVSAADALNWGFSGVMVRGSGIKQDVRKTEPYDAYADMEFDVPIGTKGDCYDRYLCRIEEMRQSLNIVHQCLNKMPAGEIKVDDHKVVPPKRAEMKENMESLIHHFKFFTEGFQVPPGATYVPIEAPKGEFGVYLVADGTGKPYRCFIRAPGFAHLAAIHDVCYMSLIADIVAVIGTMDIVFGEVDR

CC(C)Cc1ccc(C(C)c2nc3ccccc3n2C)cc1 (stereo not shown) [NPD8790]
remaining activity at 0.0001 µM [1]: 96.6% | remaining activity at 0.0005 µM [2]: 105% | remaining activity at 0.0005 µM [1]: 96.5% | remaining activity at 0.001 µM [2]: 99% | remaining activity at 0.001 µM [1]: 92.6% | remaining activity at 0.0025 µM [2]: 107% | remaining activity at 0.0025 µM [1]: 98.8% | remaining activity at 0.005 µM [2]: 102% | remaining activity at 0.005 µM [1]: 95.9% | remaining activity at 0.013 µM [1]: 106% | remaining activity at 0.025 µM [2]: 102% | remaining activity at 0.025 µM [1]: 98.2% | remaining activity at 0.063 µM [1]: 95.6% | remaining activity at 0.125 µM [3]: 96.6% | remaining activity at 0.125 µM (N2 wild-type mitochondria, Fig. 4d data set, single replicate, read-out: percent (%) in vitro complex I activity relative to solvent control): 94.3% | remaining activity at 0.125 µM [4]: 102% | remaining activity at 0.125 µM (wild-type C. elegans mitochondria, single replicate, read-out: percent (%) in vitro complex I activity relative to solvent control): 95.7% | remaining activity at 0.125 µM [2]: 95.7% | remaining activity at 0.125 µM [1]: 92% | remaining activity at 0.313 µM [3]: 90.9% | remaining activity at 0.313 µM [4]: 93% | remaining activity at 0.313 µM [2]: 86.3% | remaining activity at 0.313 µM [1]: 81.9% | remaining activity at 0.625 µM [3]: 93.2% | remaining activity at 0.625 µM [4]: 87% | remaining activity at 0.625 µM [1]: 83.7% | remaining activity at 1.5 µM [3]: 78.9% | remaining activity at 1.5 µM [4]: 72.5% | remaining activity at 1.5 µM [1]: 70.3% | remaining activity at 3 µM [3]: 61.6% | remaining activity at 3 µM [4]: 52.5% | remaining activity at 3 µM [1]: 49.5% | remaining activity at 15 µM [3]: 8.9% | remaining activity at 15 µM [4]: 7.83% | remaining activity at 15 µM [1]: 8.01% | remaining activity at 37.5 µM [3]: 5.01% | remaining activity at 37.5 µM [4]: 3.88% | remaining activity at 37.5 µM [1]: 3.5% | remaining activity at 75 µM (75 µM, wild-type C. elegans, mean of Rep1-4, read-out: percent in vitro complex I activity relative to solvent control, Mean): 13.3% | activity at 100 µM (100 µM compound, relative to solvent control, mean (SEM), read-out: % Activity Complex I): 5.34% | Percent in vitro activity, Complex I (single replicate Rep1-Rep4) (100 μM of NPD compound, C. elegans mitochondria, individual biological replicates, 100 µM): 0.000% and 4.423% and 13.672% and 3.252% | activity at 100 µM (100 μM of NPD compound, C. elegans mitochondria, mean of four biological replicates, read-out: Percent in vitro activity, Complex I (Mean)): 5.34% | remaining activity at 0.06 µM (C. elegans mitochondria, 0.06 µM, Mean of replicates, read-out: in vitro complex I activity relative to solvent control): 109% | remaining activity at 0.13 µM [5]: 102% | remaining activity at 0.13 µM [6]: 112% | remaining activity at 0.313 µM [5]: 93% | remaining activity at 0.625 µM [5]: 87% | remaining activity at 1.5 µM [5]: 72.5% | remaining activity at 3 µM [5]: 52.5% | remaining activity at 15 µM [5]: 7.83% | remaining activity at 37.5 µM [5]: 3.88% | remaining activity at 0.0001 µM [7]: 104% | remaining activity at 0.0005 µM [7]: 106% | remaining activity at 0.0005 µM [6]: 105% | remaining activity at 0.001 µM [7]: 104% | remaining activity at 0.0025 µM [7]: 109% | remaining activity at 0.0025 µM [6]: 107% | remaining activity at 0.005 µM [7]: 107% | remaining activity at 0.013 µM [7]: 115% | remaining activity at 0.025 µM [7]: 108% | remaining activity at 0.025 µM [6]: 102% | remaining activity at 0.063 µM [7]: 109% | remaining activity at 0.125 µM [7]: 102% | remaining activity at 0.125 µM [6]: 95.7% | remaining activity at 0.313 µM [7]: 93% | remaining activity at 0.625 µM [7]: 87% | remaining activity at 1.5 µM [7]: 72.5%
